Source: PMC8585947, “Structure of Escherichia coli cytochrome bd-II type oxidase with bound aurachin D” (Nature Communications, 2021)

What was measured:
[1] = biological target: T1, cytochrome bd-II oxidase subunit AppC (Escherichia coli, UniProt P26459); experiment: duroquinol:O2 oxidoreductase inhibition (Clark electrode); format: biochemical
T1 construct: bd-II oxidase (AppC, AppB, AppX), C-terminal His-tag on AppC; with AppB, AppX

[2] = biological target: cytochrome bd-II oxidase subunit AppC (Escherichia coli, UniProt P26459, D239N); experiment: biochemical
[3] = biological target: T1, cytochrome bd-II oxidase subunit AppC; experiment: duroquinol:O2 oxidoreductase activity of isolated bd-II, Clark-type oxygen electrode; format: biochemical
[4] = biological target: cytochrome bd-II oxidase subunit AppB (Escherichia coli, UniProt P26458)
Chain of cytochrome bd-II oxidase subunit AppB (P26458 whole entry): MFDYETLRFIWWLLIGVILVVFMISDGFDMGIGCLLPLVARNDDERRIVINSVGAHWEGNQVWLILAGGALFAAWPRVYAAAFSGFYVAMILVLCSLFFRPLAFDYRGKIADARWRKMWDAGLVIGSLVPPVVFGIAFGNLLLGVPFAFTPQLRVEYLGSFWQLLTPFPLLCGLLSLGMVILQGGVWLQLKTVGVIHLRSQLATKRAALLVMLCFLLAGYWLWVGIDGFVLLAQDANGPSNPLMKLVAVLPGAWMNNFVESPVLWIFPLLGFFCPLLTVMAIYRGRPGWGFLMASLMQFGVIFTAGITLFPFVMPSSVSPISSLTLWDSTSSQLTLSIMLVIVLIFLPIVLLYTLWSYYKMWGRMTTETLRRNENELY
Chain of cytochrome bd-II oxidase subunit AppB (P26459 whole entry partner): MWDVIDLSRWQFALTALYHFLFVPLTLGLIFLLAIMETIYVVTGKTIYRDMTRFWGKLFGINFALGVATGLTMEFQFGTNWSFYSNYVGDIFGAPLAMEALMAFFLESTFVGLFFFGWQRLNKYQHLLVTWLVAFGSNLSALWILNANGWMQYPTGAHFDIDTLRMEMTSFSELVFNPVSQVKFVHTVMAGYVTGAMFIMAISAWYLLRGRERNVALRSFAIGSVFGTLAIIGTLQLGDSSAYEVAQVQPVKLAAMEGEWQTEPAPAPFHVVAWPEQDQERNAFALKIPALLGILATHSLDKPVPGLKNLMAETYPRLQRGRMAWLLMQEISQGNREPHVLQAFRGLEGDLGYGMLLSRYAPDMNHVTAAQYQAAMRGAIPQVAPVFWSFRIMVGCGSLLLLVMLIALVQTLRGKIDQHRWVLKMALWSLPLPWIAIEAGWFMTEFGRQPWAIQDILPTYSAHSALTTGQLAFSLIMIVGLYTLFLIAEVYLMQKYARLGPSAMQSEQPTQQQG
Chain of cytochrome bd-II oxidase subunit AppB (P24244 whole entry partner): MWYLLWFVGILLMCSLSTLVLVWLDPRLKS

T1 sequence (P24244 whole entry): as the sequence (P24244 whole entry partner) above
T1 sequence (P26458 whole entry, further chain): as the sequence (P26458 whole entry) above
T1 sequence (P26459 whole entry): as the sequence (P26459 whole entry partner) above
Chain of cytochrome bd-II oxidase subunit AppC (Escherichia coli, UniProt P26459, D239N) (P26459 whole entry, stated change not applied): as the sequence (P26459 whole entry partner) above
Chain of cytochrome bd-II oxidase subunit AppC (Escherichia coli, UniProt P26459, D239N) (P24244 whole entry, further chain): as the sequence (P24244 whole entry partner) above
Chain of cytochrome bd-II oxidase subunit AppC (Escherichia coli, UniProt P26459, D239N) (P26458 whole entry, further chain): as the sequence (P26458 whole entry) above

CC(C)=CCC/C(C)=C/CC/C(C)=C\Cc1c(C)[nH]c2ccccc2c1=O [aurachin D]
IC50 [1]: 11.1 nM | IC50 [2]: 60.7 nM

CC(C)=CCC/C(C)=C/CC/C(C)=C/Cc1c(C)n(O)c2ccccc2c1=O [aurachin C]
IC50 [3]: 7.1 nM

COC1=C(OC)C(=O)C(C/C=C(\C)CC/C=C(\C)CC/C=C(\C)CC/C=C(\C)CC/C=C(\C)CC/C=C(\C)CC/C=C(\C)CCC=C(C)C)=C(C)C1=O [ubiquinone-8]
cryo-EM structure at 3.0 Å [4]: cleft towards the periplasmic space filled with an extended electron density that was perfectly fitted as ubiquinone-8
